“And” between values parts separate entries of the source, which are not always exact repeats. Equal values may be shown once. Inconclusive results and toxic doses are left out.
Test system: P388 leukemia ip, CD2F1 mice, survival T/C
Experiment: NCI In Vivo Anticancer Drug Screen. Data for tumor model P388 Leukemia (intraperitoneal) in CD2F1 (CDF1) mice
Settings: endpoint: median survival time, higher = longer survival
Method: The antitumor activity of compounds was measured in mice bearing transplantable tumors. Survival or tumor size were measured and the results are expressed as the measurement made in the treated group (T) divided by the measurement made in the vehicle treated control group (C). The tumor model used in this assay is P388 Leukemia (intraperitoneal) in CD2F1 (CDF1) mice

[1] = dose: 25.0 mg/kg/injection, schedule: Q01DX009 (ip), vehicle: saline with Tween-80
[2] = dose: 50.0 mg/kg/injection, schedule: Q01DX009 (ip), vehicle: saline with Tween-80
[3] = dose: 50.0 mg/kg/injection, schedule: Q01DX005 (ip), vehicle: saline with Tween-80
[4] = dose: 100.0 mg/kg/injection, schedule: Q01DX005 (ip), vehicle: saline with Tween-80
[5] = dose: 200.0 mg/kg/injection, schedule: Q01DX005 (ip), vehicle: saline with Tween-80
[6] = dose: 50.0 mg/kg/injection, schedule: Q01DX009 (ip), vehicle: Klucel (hydroxypropylcellulose) (HPC)
[7] = dose: 100.0 mg/kg/injection, schedule: Q01DX009 (ip), vehicle: Klucel (hydroxypropylcellulose) (HPC)
[8] = dose: 200.0 mg/kg/injection, schedule: Q01DX009 (ip), vehicle: Klucel (hydroxypropylcellulose) (HPC)
[9] = dose: 200.0 mg/kg/injection, schedule: Q04DX002 (ip), vehicle: Klucel (hydroxypropylcellulose) (HPC)
[10] = dose: 12.5 mg/kg/injection, schedule: Q01DX009 (ip), vehicle: Klucel (hydroxypropylcellulose) (HPC)
[11] = dose: 200.0 mg/kg/injection, schedule: Q01DX001 (ip), vehicle: Klucel (hydroxypropylcellulose) (HPC)
[12] = dose: 100.0 mg/kg/injection, schedule: Q01DX009 (ip), vehicle: saline with Tween-80
[13] = dose: 200.0 mg/kg/injection, schedule: Q01DX009 (ip), vehicle: saline with Tween-80
[14] = dose: 25.0 mg/kg/injection, schedule: Q01DX009 (ip), vehicle: Klucel (hydroxypropylcellulose) (HPC)

For `Cc1ccc2ccccc2c1NS(=O)(=O)c1ccccc1`, the T/C (dose: 100.0 mg/kg/injection, schedule: Q01DX001 (ip), vehicle: saline with Tween-80) was 95 % of control, the T/C (dose: 200.0 mg/kg/injection, schedule: Q01DX001 (ip), vehicle: saline with Tween-80) was 95 % of control and the T/C (dose: 400.0 mg/kg/injection, schedule: Q01DX001 (ip), vehicle: saline with Tween-80) was 91 % of control.
With `O=C1CCC(O)N1CN1C(=O)CCC1O` (stereo not given) the T/C (dose: 60.0 mg/kg/injection, schedule: Q01DX005 (ip), vehicle: saline) was 100 % of control, the T/C (dose: 120.0 mg/kg/injection, schedule: Q01DX005 (ip), vehicle: saline) was 108 % of control and the T/C (dose: 240.0 mg/kg/injection, schedule: Q01DX005 (ip), vehicle: saline) was 100 % of control.
`Cc1[nH]ccc2c(C)c3nc4ccccc4c3cc12` was tested, and the T/C (dose: 6.25 mg/kg/injection, schedule: Q04DX002 (ip), vehicle: water) was 108 % of control, the T/C (dose: 12.5 mg/kg/injection, schedule: Q04DX002 (ip), vehicle: water) was 121 % of control and the T/C [1] was 163 % of control. For the same molecule, the T/C (dose: 25.0 mg/kg/injection, schedule: Q04DX002 (ip), vehicle: water) was 123 % of control, the T/C [2] was 113 % of control and the T/C (dose: 100.0 mg/kg/injection, schedule: Q04DX002 (ip), vehicle: water) was 153 % of control. The T/C (dose: 160.0 mg/kg/injection, schedule: Q04DX002 (ip), vehicle: distilled water + Tween-80) was 157 % of control, the T/C (dose: 200.0 mg/kg/injection, schedule: Q04DX002 (ip), vehicle: water) was 166 % of control and the T/C (dose: 320.0 mg/kg/injection, schedule: Q04DX002 (ip), vehicle: distilled water + Tween-80) was 188 % of control.
`CCOc1c(-c2ccccc2)c(=O)n2c3ccccc3n(CC)c2c1C#N` was tested, and the T/C (dose: 7.5 mg/kg/injection, schedule: Q01DX005 (ip), vehicle: saline with Tween-80) was 86 % of control, the T/C (dose: 15.0 mg/kg/injection, schedule: Q01DX005 (ip), vehicle: saline with Tween-80) was 87 % of control and the T/C (dose: 30.0 mg/kg/injection, schedule: Q01DX005 (ip), vehicle: saline with Tween-80) was 93 % of control. The T/C (dose: 120.0 mg/kg/injection, schedule: Q01DX005 (ip), vehicle: saline with Tween-80) was 88 % of control and the T/C (dose: 240.0 mg/kg/injection, schedule: Q01DX005 (ip), vehicle: saline with Tween-80) was 98 % of control and 100 % of control.
For `CC(=O)Nc1cccc2c1CCCC2`, the T/C [3] was 100 % of control, the T/C [4] was 102 % of control and the T/C [5] was 102 % of control.
With `CC(C)OCCCN(Cn1c(=S)sc2ccccc21)Cn1c(=S)sc2ccccc21` the T/C [6] was 91 % of control, the T/C [7] was 89 % of control and the T/C [8] was 87 % of control.
`CCC[C@@H]1C[C@@H](OC(=S)SC)C[C@H]2CCC(=O)N12` was tested, and the T/C (dose: 50.0 mg/kg/injection, schedule: Q01DX005 (ip), vehicle: Klucel + Tween-80) was 102 % of control, the T/C (dose: 100.0 mg/kg/injection, schedule: Q01DX005 (ip), vehicle: Klucel + Tween-80) was 93 % of control and the T/C (dose: 200.0 mg/kg/injection, schedule: Q01DX005 (ip), vehicle: Klucel + Tween-80) was 107 % of control.
`Cc1ccc(/C2=C(\c3ccc(C)cc3)N(c3ccccc3)CCCCN2c2ccccc2)cc1` was tested, and the T/C (dose: 100.0 mg/kg/injection, schedule: Q04DX002 (ip), vehicle: Klucel (hydroxypropylcellulose) (HPC)) was 99 % of control, the T/C [9] was 99 % of control and the T/C (dose: 400.0 mg/kg/injection, schedule: Q04DX002 (ip), vehicle: Klucel (hydroxypropylcellulose) (HPC)) was 99 % of control.
With `O=C(O)CC1C=CC2C=CC1C=C2` (stereo not given) the T/C [3] was 101 % of control, the T/C [4] was 100 % of control and the T/C [5] was 99 % of control.
In the case of `C#Cc1cccc(NC(=O)c2ccc(Cl)cc2Cl)c1`, the T/C (dose: 60.0 mg/kg/injection, schedule: Q01DX005 (ip), vehicle: Klucel (hydroxypropylcellulose) (HPC)) is reported as 100 % of control, the T/C (dose: 120.0 mg/kg/injection, schedule: Q01DX005 (ip), vehicle: Klucel (hydroxypropylcellulose) (HPC)) is reported as 104 % of control and the T/C (dose: 240.0 mg/kg/injection, schedule: Q01DX005 (ip), vehicle: Klucel (hydroxypropylcellulose) (HPC)) is reported as 105 % of control.
With `CC(=O)OCc1cc(=O)n(C)c2c3c4c(cc12)c(C)cc(=O)n4CO3` the T/C [10] was 123 % of control, the T/C (dose: 25.0 mg/kg/injection, schedule: Q03HX015 (ip), vehicle: Klucel (hydroxypropylcellulose) (HPC)) was 173 % of control and the T/C (dose: 25.0 mg/kg/injection, schedule: Q04DX002 (ip), vehicle: Klucel (hydroxypropylcellulose) (HPC)) was 121 % of control. The T/C (dose: 25.0 mg/kg/injection, schedule: Q06HX010 (ip), vehicle: Klucel (hydroxypropylcellulose) (HPC)) was 152 % of control, the T/C (dose: 50.0 mg/kg/injection, schedule: Q01DX001 (ip), vehicle: Klucel (hydroxypropylcellulose) (HPC)) was 119 % of control and 124 % of control and the T/C [6] was 157 % of control. For the same molecule, the T/C (dose: 50.0 mg/kg/injection, schedule: Q06HX010 (ip), vehicle: Klucel (hydroxypropylcellulose) (HPC)) was 105 % of control, the T/C [7] was 86 % of control and the T/C [11] was 155 % of control. For the same molecule, the T/C [9] was 168 % of control, the T/C (dose: 400.0 mg/kg/injection, schedule: Q01DX001 (ip), vehicle: Klucel (hydroxypropylcellulose) (HPC)) was 157 % of control and 176 % of control and the T/C (dose: 800.0 mg/kg/injection, schedule: Q01DX001 (ip), vehicle: Klucel (hydroxypropylcellulose) (HPC)) was 168 % of control.
In the case of `O=c1[nH]c2ccccc2nc1Cl`, the T/C [1] is reported as 100 % of control, the T/C [2] is reported as 98 % of control and the T/C [12] is reported as 97 % of control.
With `CC(Cl)CN(CC(C)Cl)c1ccc(-c2ccccc2)cc1` (stereo not given) the T/C [6] was 105 % of control and 109 % of control and the T/C [7] was 124 % of control.
For `O=C1C=C(C2=C(O)c3ccccc3C2=O)c2ccccc21` (tested in a mixture with another compound), the T/C [6] was 105 % of control and the T/C [7] was 105 % of control.
With `O=C1c2ccccc2C(=O)c2c(-c3ccccc3)ccc(-c3ccccc3)c21` the T/C [3] was 93 % of control, the T/C [4] was 99 % of control and the T/C [5] was 87 % of control.
For `C=CCNC(=S)N/N=C(\CCC)c1ccccn1`, the T/C [3] was 114 % of control and the T/C [4] was 121 % of control.
In the case of `CCCCc1ccc(Nc2ccc(Nc3ccc(CCCC)cc3S(=O)(=O)O)c3c2C(=O)c2ccccc2C3=O)c(S(=O)(=O)O)c1`, the T/C [2] is reported as 94 % of control, the T/C [12] is reported as 90 % of control and the T/C [13] is reported as 94 % of control.
For `O=C1CCC2CC1CCC2=O`, the T/C [10] was 111 % of control, the T/C [14] was 102 % of control and the T/C [6] was 109 % of control. The T/C [7] was 111 % of control.
`CC(=O)O.CC(=O)O.[S-]CCN1CCOCC1.[Zn+2]` was tested, and the T/C [10] was 100 % of control and the T/C [14] was 102 % of control.
In the case of `CC(C)(OCc1ccccc1)c1ccccc1[P+](C)(c1ccccc1)c1ccccc1`, the T/C (dose: 100.0 mg/kg/injection, schedule: Q01DX001 (ip), vehicle: Klucel (hydroxypropylcellulose) (HPC)) is reported as 109 % of control and the T/C [11] is reported as 113 % of control.
`C=C(C)[C@@H]1CC[C@]2(C(=O)OC)CC[C@]3(C)[C@H](CC[C@@H]4[C@@]5(C)CC[C@H](O)C(C)(C)[C@@H]5CC[C@]43C)[C@@H]12` was tested, and the T/C [14] was 107 % of control, the T/C [6] was 102 % of control and the T/C [7] was 98 % of control. For the same molecule, the T/C [8] was 102 % of control.
In the case of `O=C1CCCSc2ccccc21`, the T/C [1] is reported as 100 % of control, the T/C [2] is reported as 94 % of control and the T/C [12] is reported as 102 % of control. For the same molecule, the T/C [13] was 106 % of control.
`COc1cc2c(cc1O)CCCC=C2` was tested, and the T/C (dose: 100.0 mg/kg/injection, schedule: Q01DX009 (ip), vehicle: gum acacia) was 113 % of control, the T/C (dose: 200.0 mg/kg/injection, schedule: Q01DX009 (ip), vehicle: gum acacia) was 105 % of control and the T/C (dose: 400.0 mg/kg/injection, schedule: Q01DX009 (ip), vehicle: gum acacia) was 106 % of control.
For `CCN(CC)CCCC(C)Nc1cc(-c2ccccc2)nc2cc(Cl)ccc12` (stereo not given), the T/C (dose: 50.0 mg/kg/injection, schedule: Q01DX005 (ip), vehicle: saline) was 106 % of control, the T/C (dose: 100.0 mg/kg/injection, schedule: Q01DX005 (ip), vehicle: saline) was 112 % of control and the T/C (dose: 200.0 mg/kg/injection, schedule: Q01DX005 (ip), vehicle: saline) was 116 % of control.
With `BrCCc1ccccc1Br` the T/C (dose: 50.0 mg/kg/injection, schedule: Q01DX005 (ip), vehicle: distilled water + alcohol) was 105 % of control, the T/C (dose: 100.0 mg/kg/injection, schedule: Q01DX005 (ip), vehicle: distilled water + alcohol) was 97 % of control and the T/C (dose: 200.0 mg/kg/injection, schedule: Q01DX005 (ip), vehicle: distilled water + alcohol) was 97 % of control.

— PubChem BioAssay AID330 (DTP/NCI, 2004)
